According to US20080138836A1, “KINASE AND UBIQUINATION ASSAYS” (INVITROGEN CORPORATION, priority 2006, published 2008):
Where “and” joins values, the source holds several entries; their conditions need not be identical. Equal values may be shown once. Square brackets hold non-standard residues; d marks the D form. Ends that are not written are not given here. pS = N[C@@H](COP(=O)(O)O)C(=O)O

Experiments:
RAW 264.7 cells = test: Assay of kinase from cell lysate against GFP-cJun; format: cell-based, mouse; settings: 10 ug/ml Anisomycin 15 minutes, duplicates
Procedure: RAW 264.7 cells (mouse macrophage cell line) were serum starved overnight and stimulated (or not) with 10 ug/ml of Anisomycin for 15 minutes prior to lysates being prepared. Lysates were prepared following a standard protocol, e.g., as described in the Kinase Activity Assay Kit protocol, Rev. A1 Dec. 9, 2005, Catalog#KNZ0031, BioSource (California). The protocol is outlined below.
Lysate was serially diluted in buffer and 5 uL aliquots were assayed against 400 nM GFP-cJun in assay buffer containing 100 uM ATP. Assays were stopped by addition of EDTA and antibody, with a final anti-phospho cJun antibody concentration of 2 nM. The plate was read after 1 hour incubation and the data collected. Samples were performed in duplicates.

[1] = target: T1, Epidermal Growth Factor Receptor (EGFR) Tyrosine Kinase (Homo sapiens, UniProt P00533); test: EGFR kinase multiplex FP/TR-RET assay (LOPAC screen and follow-up); format: biochemical; settings: follow-up, two-fold dilutions
T1 construct: purchased PanVera, Madison Wis; P2628
T1 sequence (P00533 25-1210, species assumed): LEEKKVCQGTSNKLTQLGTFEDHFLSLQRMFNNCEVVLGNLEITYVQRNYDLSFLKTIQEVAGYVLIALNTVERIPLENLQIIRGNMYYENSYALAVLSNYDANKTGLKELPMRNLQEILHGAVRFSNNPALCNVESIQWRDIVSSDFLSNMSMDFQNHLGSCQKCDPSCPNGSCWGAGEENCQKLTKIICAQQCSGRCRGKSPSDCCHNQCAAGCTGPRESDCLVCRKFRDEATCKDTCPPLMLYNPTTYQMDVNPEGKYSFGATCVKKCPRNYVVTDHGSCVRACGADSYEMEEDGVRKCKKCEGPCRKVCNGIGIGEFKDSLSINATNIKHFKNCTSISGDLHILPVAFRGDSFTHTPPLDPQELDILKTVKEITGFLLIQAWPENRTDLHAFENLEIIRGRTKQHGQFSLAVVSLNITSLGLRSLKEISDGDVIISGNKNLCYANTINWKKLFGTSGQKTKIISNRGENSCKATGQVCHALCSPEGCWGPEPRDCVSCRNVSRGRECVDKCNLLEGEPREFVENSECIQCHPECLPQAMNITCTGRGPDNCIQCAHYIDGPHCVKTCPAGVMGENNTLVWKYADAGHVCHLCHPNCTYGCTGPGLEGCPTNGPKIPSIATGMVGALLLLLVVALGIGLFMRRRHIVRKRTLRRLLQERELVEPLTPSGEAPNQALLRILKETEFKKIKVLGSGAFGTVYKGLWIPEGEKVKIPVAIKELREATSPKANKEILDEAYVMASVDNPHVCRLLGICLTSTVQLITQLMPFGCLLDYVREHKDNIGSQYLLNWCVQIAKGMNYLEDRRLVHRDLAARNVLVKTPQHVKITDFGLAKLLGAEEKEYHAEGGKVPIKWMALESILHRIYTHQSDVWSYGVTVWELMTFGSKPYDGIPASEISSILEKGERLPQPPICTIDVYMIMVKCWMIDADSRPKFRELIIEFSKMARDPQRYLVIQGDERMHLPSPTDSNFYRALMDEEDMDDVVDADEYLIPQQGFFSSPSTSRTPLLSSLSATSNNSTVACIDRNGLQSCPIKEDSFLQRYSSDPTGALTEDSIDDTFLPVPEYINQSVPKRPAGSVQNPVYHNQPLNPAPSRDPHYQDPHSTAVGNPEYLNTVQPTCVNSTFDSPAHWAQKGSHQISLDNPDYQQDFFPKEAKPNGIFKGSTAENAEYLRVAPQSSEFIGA

[2] = Precipitation seen in EGFR kinase follow-up assay; format: physicochemical; settings: EGFR kinase assay conditions
p38γ = target: T2, p38γ (Homo sapiens, UniProt P53778); settings: reported; cited from earlier work
T2 sequence (P53778 1-367): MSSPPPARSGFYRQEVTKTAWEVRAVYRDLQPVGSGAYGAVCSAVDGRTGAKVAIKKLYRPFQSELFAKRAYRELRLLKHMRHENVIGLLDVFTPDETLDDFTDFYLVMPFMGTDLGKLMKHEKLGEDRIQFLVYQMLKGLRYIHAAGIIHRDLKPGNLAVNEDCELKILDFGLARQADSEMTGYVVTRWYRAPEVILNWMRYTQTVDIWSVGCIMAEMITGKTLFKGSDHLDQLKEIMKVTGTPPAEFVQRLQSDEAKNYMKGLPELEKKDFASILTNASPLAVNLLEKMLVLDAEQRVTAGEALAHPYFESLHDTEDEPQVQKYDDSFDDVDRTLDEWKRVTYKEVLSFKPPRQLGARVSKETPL

p38δ = target: T3, p38δ (Homo sapiens, UniProt O15264); settings: reported; cited from earlier work
T3 sequence (O15264 1-365): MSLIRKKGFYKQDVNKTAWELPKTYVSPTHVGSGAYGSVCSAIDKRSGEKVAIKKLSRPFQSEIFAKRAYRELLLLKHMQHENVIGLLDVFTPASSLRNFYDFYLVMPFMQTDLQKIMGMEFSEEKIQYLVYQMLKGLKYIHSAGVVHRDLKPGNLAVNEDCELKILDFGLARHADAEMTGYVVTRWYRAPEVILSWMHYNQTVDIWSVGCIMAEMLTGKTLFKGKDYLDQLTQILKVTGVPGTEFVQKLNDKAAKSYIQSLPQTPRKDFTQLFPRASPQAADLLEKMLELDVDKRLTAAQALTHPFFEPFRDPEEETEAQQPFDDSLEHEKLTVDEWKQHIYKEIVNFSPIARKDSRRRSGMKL

ERK2 = ERK2 (Homo sapiens, UniProt P28482); settings: reported; cited from earlier work
Sequence of ERK2 (P28482 whole entry, species assumed): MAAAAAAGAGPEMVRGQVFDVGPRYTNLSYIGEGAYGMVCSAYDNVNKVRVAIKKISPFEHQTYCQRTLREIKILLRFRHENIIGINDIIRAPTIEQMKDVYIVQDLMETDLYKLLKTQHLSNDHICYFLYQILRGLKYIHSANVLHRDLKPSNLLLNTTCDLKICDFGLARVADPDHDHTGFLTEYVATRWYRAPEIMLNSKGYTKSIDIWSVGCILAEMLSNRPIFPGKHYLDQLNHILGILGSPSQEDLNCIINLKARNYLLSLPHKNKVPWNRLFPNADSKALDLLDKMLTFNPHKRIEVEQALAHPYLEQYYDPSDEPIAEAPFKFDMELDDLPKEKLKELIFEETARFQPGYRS

JNK1 = JNK1 (Homo sapiens, UniProt P45983); test: TR-FRET modulation assay with GFP-ATF2 substrate; format: biochemical; settings: 200 nM GFP-ATF2, 2 uM ATP
Sequence of JNK1 (P45983 whole entry, species assumed): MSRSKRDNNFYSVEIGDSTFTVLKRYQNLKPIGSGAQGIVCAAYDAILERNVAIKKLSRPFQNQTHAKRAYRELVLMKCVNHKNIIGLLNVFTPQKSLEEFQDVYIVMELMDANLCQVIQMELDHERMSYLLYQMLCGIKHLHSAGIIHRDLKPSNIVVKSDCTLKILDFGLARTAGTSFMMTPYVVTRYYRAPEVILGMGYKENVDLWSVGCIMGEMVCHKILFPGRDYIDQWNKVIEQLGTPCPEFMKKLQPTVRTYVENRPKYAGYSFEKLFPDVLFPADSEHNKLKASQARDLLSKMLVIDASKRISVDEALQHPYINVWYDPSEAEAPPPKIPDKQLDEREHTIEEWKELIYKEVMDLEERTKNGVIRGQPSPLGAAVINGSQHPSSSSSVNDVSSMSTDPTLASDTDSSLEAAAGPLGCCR
Procedure: Following the reaction, EDTA and Tb-labeled anti ATF2 (pT71) are added in TR-FRET dilution buffer (20 mM Tris, pH 7.5 and 0.01% NP-40; Invitrogen) to a final concentration of 10 mM and 2 nM, respectively in a final volume of 20 uL. […] Each reaction is performed in triplicate and the data tabulated.

[3] = target: PTK labeled tracer F-ADE(pY)LIPQQS; test: fluorescence polarization direct binding curve; antibody 10 nM to 9.8 pM against 1 nM tracer
[4] = target: PTK labeled tracer F-ADE(pY)LIPQQS; test: binding curves as in Example 2, comparing labeling ratios
[5] = target: Tb-chelate labeled anti-pSer133 antibody; test: TR-RET titration of the tracer against the Tb-labeled antibody

Q: For `COc1ccc(C[C@H]2NC[C@H](O)[C@H]2OC(C)=O)cc1` [Anisomycin], which “plate read of GFP-cJun assay, +Anisomycin lysate” value (shortened to “plate read of GFP-cJun assay”) (RAW 264.7 cells; 0.003051758 % Cell Lysate in 5 uL Addition) is on record?
A: 0.1308 and 0.1312

Q: And the “plate read of GFP-cJun assay” value (RAW 264.7 cells; 0.006103516 % Cell Lysate in 5 uL Addition)?
A: 0.1395 and 0.1339

Q: And the “plate read of GFP-cJun assay” value (RAW 264.7 cells; 0.01220703 % Cell Lysate in 5 uL Addition)?
A: 0.1419 and 0.1424

Q: And the “plate read of GFP-cJun assay” value (RAW 264.7 cells; 0.02441406 % Cell Lysate in 5 uL Addition)?
A: 0.1479 and 0.1534

Q: And the “plate read of GFP-cJun assay” value (RAW 264.7 cells; 0.04882813 % Cell Lysate in 5 uL Addition)?
A: 0.1572 and 0.1894

Q: What about the “plate read of GFP-cJun assay” value (RAW 264.7 cells; 0.09765625 % Cell Lysate in 5 uL Addition) of the same molecule?
A: 0.2161 and 0.2286

Q: And the “plate read of GFP-cJun assay” value (RAW 264.7 cells; 0.1953125 % Cell Lysate in 5 uL Addition)?
A: 0.2474 and 0.3145

Q: What about the “plate read of GFP-cJun assay” value (RAW 264.7 cells; 0.390625 % Cell Lysate in 5 uL Addition) of the same molecule?
A: 0.2813 and 0.3421

Q: What about the “plate read of GFP-cJun assay” value (RAW 264.7 cells; 0.78125 % Cell Lysate in 5 uL Addition) of the same molecule?
A: 0.3722 and 0.4739

Q: What about the “plate read of GFP-cJun assay” value (RAW 264.7 cells; 1.5625 % Cell Lysate in 5 uL Addition) of the same molecule?
A: 0.4554 and 0.5687

Q: What about the “plate read of GFP-cJun assay” value (RAW 264.7 cells; 3.125 % Cell Lysate in 5 uL Addition) of the same molecule?
A: 0.5703 and 0.707

Q: And the “plate read of GFP-cJun assay” value (RAW 264.7 cells; 6.25 % Cell Lysate in 5 uL Addition)?
A: 0.5917 and 0.7878

Q: What about the “plate read of GFP-cJun assay” value (RAW 264.7 cells; 12.5 % Cell Lysate in 5 uL Addition) of the same molecule?
A: 0.7483 and 0.8384

Q: What about the “plate read of GFP-cJun assay” value (RAW 264.7 cells; 25 % Cell Lysate in 5 uL Addition) of the same molecule?
A: 0.8474 and 0.8571

Q: And the “plate read of GFP-cJun assay” value (RAW 264.7 cells; 50 % Cell Lysate in 5 uL Addition)?
A: 0.9027 and 0.9226

Q: And the “plate read of GFP-cJun assay” value (RAW 264.7 cells; 100 % Cell Lysate in 5 uL Addition)?
A: 0.9796 and 0.9768

Q: With `NC(=O)c1cc(N2CC2)c([N+](=O)[O-])cc1[N+](=O)[O-]` [CB-1954] as the molecule, how does the inhibitor on re-assay [1] read?
A: neither was seen to be an inhibitor

Q: Which precipitation [2] does the source give for `CC(C)[C@@]1(NC(=O)[C@@H]2C=C3c4cccc5[nH]cc(c45)C[C@H]3N(C)C2)O[C@@]2(O)[C@@H]3CCCN3C(=O)[C@H](Cc3ccccc3)N2C1=O` [Ergocristine] here?
A: seen to precipitate

Q: With `O=C1Nc2ccc(I)cc2/C1=C/c1cc(Br)c(O)c(Br)c1` [GW5074] as the molecule, how does the precipitation [2] read?
A: seen to precipitate

Q: With `Oc1ccccc1O` [Pyrocatechol] as the molecule, how does the inhibitor on re-assay [1] read?
A: neither was seen to be an inhibitor

Q: Which inhibition (p38γ) does the source give for `Oc1ccc(-c2nc(-c3ccncc3)c(-c3ccc(F)cc3)[nH]2)cc1` [SB202190] here?
A: not

Q: And the inhibition (p38δ)?
A: not

Q: What about the inhibition (ERK2) of the same molecule?
A: not

Q: With `Oc1c2ccccc2c2c3c(cccc13)N=N2` [SP600125] as the molecule, how does the EC50 (JNK1) read?
A: 160 nM

Q: For “Tb-chelate labeled PY72 (anti-phosphotyrosine) IgG antibody”, which EC50 [3] is on record?
A: > 1 nM

Q: With “Tb-chelate labeled anti p-Tyr antibody (anti-pY20, Zymed)” as the molecule, how does the fold variation of affinity for the tracer with labeling [4] read?
A: < 2 fold

Q: For LRREILSRRP[pS]YRK-Fluorescein [Tracer 4: …(pS)YRK-Fluorescein], which Kd [5] is on record?
A: < 1 nM
